In one assay the target is T1, Fes (Homo sapiens, UniProt P07332).
T1 construct: purchased Upstate
The experiment in a line: Upstate KinaseProfiler radio-enzymatic filter binding assay. To be noted: at a concentration of 10 μM; read-out: percentage inhibition of Fes. It is filed as biochemical. On the procedure: (§1) Compounds of the invention are assessed for their ability to inhibit individual members of a panel of kinases (a partial, non-limiting list of kinases includes: Abl, BMX, BTK, CHK2, c-RAF, CSK, c-SRC, Fes, FGFR3, Flt3, IKKα, IKKβ, JNK2α2, Lck, Met, MKK4, MKK6, MST2, NEK2, p70S6K, PDGFRβ, PKA, PKBα, PKD2, Rsk1, SAPK2α, SAPK2β, SAPK3, SGK, Tie2 and/or TrkB. The compounds are tested in duplicates at a final concentration of 10 μM following this generic protocol. Note that the kinase buffer composition and the substrates vary for the different kinases included in the “Upstate KinaseProfiler™” panel. Kinase buffer (2.5 μL, 10×—containing MnCl2 when required), active kinase (0.001-0.01 Units; 2.5 μL), specific or Poly(Glu4-Tyr) peptide (5-500 μM or 0.01 mg/ml) in kinase buffer and kinase buffer (50 μM; 5 μL) are mixed in an eppendorf on ice. A Mg/ATP mix (10 μL; 67.5 (or 33.75) mM MgCl2, 450 (or 225) μM ATP and 1 μCi/μl [γ-^32P]-ATP (3000 Ci/mmol)) is added and the reaction is incubated at about 30° C. for about 10 minutes. The reaction mixture is spotted (20 μL) onto a 2 cm×2 cm P81 (phosphocellulose, for positively charged peptide substrates) or Whatman No. 1 (for Poly (Glu4-Tyr) peptide substrate) paper square. The assay squares are washed 4 times, for 5 minutes each, with 0.75% phosphoric acid and washed once with acetone for 5 minutes. The assay squares are transferred to a scintillation vial, 5 ml scintillation cocktail are added and ^32P incorporation (cpm) to the peptide substrate is quantified with a Beckman scintillation counter. Percentage inhibition is calculated for each reaction.

Another assay addresses T2, c-SRC (Homo sapiens, UniProt P12931).
T2 construct: purchased Upstate
Described as above. The assay is classed as biochemical. As to conditions: at a concentration of 10 μM; read-out: percentage inhibition of c-SRC. The procedure: as §1

For another assay, the target named is T3, Abl (Homo sapiens, UniProt P00519).
T3 construct: purchased Upstate
Described as above. It is filed as biochemical. As to conditions: at a concentration of 10 μM; read-out: percentage inhibition of Abl. On the procedure: as §1

The next assay has as its target T4, CSK (Homo sapiens, UniProt P41240).
T4 construct: purchased Upstate
The description is as above. It is filed as biochemical. As to conditions: at a concentration of 10 μM; read-out: percentage inhibition of CSK. The procedure: as §1

The target in another assay is T5, BTK (Homo sapiens, UniProt Q06187).
T5 construct: purchased Upstate
The assay is described as above. The assay is classed as biochemical. As to conditions: at a concentration of 10 μM; read-out: percentage inhibition of BTK. On the procedure:
as §1

The target in the next assay is T6, SAPK2α (Homo sapiens, UniProt Q16539).
T6 construct: purchased Upstate
The assay is described as above. The assay is classed as biochemical. To be noted: at a concentration of 10 μM; read-out: percentage inhibition of SAPK2α. On the procedure: as §1

The next assay deals with T7, Rsk1 (Homo sapiens, UniProt Q15418).
T7 construct: purchased Upstate
Described as above. To be noted: at a concentration of 10 μM; read-out: percentage inhibition of Rsk1. The assay is classed as biochemical. The procedure: as §1

Assay [1] deals with b-Raf (A375 cells, V599E mutation). Briefly: b-Raf cellular assay (phosphorylation of MEK in A375 cells). The assay is classed as cell-based. To be noted: Homo sapiens, A-375, phospho-MEK. The procedure: Compounds of the invention are tested in A375 cells for their ability to inhibit phosphorylation of MEK. A375 cell line (ATCC) is derived from a human melanoma patient and it has a V599E mutation on the B-Raf gene. The levels of phosphorylated MEK are elevated due to the mutation of B-Raf. Sub-confluent to confluent A375 cells are incubated with compounds for 2 hours at 37° C. in serum free medium. Cells are then washed once with cold PBS and lysed with the lysis buffer containing 1% Triton X100. After centrifugation, the supernatants are subjected to SDS-PAGE, and then transferred to nitrocellulose membranes. The membranes are then subjected to western blotting with anti-phospho-MEK antibody (ser217/221) (Cell Signaling). The amount of phosphorylated MEK is monitored by the density of phospho-MEK bands on the nitrocellulose membranes.

Assay [2] addresses T8, E255V Bcr-abl (Ba/F3 cells) (Homo sapiens, UniProt P00519, E255V).
T8 construct: expressed in transfected cells; host or cells: Ba/F3; the other entry of the earlier key: BCR (P11274, Breakpoint cluster region protein)
The experiment in a line: Proliferation of Ba/F3 cells expressing mutant Bcr-abl E255V. It is filed as cell-based. On the procedure: 2D-p210 cells are plated into 96 well TC plates at a density of 15,000 cells per well. 50 μL of two fold serial dilutions of the test compound (Cmax is 40 μM) are added to each well (STI571 is included as a positive control). After incubating the cells for 48 hours at 37° C., 5% CO2, 15 μL of MTT (Promega) is added to each well and the cells are incubated for an additional 5 hours. The optical density at 570 nm is quantified spectrophotometrically and IC50 values, the concentration of compound required for 50% inhibition, determined from a dose response curve.
Compounds of the invention are tested for their antiproliferative effect on Ba/F3 cells expressing either wild type or the mutant forms of BCR-Abl (G250E, E255V, T315I, F317L, M351T) that confers resistance or diminished sensitivity to STI571. The antiproliferative effect of these compounds on the mutant-BCR-Abl expressing cells and on the non transformed cells were tested at 10, 3.3, 1.1 and 0.37 μM as described above (in media lacking IL3). The IC50 values of the compounds lacking toxicity on the untransformed cells were determined from the dose response curves obtained as describe above.

Molecules are shown by their SMILES.

T1 sequence (P07332 whole entry): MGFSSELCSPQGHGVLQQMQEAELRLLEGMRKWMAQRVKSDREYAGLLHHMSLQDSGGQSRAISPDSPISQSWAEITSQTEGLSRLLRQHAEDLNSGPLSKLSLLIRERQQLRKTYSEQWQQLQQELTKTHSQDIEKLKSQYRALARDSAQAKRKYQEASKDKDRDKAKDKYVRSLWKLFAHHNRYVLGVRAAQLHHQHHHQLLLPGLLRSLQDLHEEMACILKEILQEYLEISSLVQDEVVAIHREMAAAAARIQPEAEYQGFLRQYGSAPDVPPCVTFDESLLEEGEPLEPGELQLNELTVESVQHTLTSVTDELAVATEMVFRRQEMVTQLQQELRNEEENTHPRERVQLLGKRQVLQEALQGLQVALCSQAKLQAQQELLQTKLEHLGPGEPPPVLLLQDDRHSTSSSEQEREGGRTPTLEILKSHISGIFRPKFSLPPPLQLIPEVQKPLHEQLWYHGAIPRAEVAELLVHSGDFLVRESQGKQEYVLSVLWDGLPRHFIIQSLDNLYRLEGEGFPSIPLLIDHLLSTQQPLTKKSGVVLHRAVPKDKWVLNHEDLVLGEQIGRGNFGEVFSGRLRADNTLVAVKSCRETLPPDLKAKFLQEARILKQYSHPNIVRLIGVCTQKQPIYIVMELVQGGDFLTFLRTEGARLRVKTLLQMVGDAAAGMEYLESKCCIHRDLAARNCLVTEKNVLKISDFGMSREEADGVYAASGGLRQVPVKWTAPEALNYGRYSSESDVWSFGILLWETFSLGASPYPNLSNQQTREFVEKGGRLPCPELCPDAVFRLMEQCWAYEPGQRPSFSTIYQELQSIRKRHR
T5 sequence (Q06187 whole entry): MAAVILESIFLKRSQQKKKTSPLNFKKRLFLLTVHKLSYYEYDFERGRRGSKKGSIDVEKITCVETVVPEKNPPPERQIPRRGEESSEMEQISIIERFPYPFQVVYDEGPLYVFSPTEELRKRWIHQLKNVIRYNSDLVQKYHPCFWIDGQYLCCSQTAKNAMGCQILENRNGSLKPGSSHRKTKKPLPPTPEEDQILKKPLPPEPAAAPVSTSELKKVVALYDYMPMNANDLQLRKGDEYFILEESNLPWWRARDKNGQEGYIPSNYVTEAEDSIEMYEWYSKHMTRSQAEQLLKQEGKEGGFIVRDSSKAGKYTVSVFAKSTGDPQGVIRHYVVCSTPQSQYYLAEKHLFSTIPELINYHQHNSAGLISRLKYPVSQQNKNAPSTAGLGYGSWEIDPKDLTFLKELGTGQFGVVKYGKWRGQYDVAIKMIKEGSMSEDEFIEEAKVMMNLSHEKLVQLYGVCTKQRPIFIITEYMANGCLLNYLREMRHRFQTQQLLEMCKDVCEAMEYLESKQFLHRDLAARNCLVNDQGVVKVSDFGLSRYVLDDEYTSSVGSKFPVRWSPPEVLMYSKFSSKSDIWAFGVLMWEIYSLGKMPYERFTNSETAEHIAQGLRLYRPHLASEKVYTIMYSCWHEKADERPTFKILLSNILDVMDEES
T8 sequence (P00519 28-1130 E255V limits assumed): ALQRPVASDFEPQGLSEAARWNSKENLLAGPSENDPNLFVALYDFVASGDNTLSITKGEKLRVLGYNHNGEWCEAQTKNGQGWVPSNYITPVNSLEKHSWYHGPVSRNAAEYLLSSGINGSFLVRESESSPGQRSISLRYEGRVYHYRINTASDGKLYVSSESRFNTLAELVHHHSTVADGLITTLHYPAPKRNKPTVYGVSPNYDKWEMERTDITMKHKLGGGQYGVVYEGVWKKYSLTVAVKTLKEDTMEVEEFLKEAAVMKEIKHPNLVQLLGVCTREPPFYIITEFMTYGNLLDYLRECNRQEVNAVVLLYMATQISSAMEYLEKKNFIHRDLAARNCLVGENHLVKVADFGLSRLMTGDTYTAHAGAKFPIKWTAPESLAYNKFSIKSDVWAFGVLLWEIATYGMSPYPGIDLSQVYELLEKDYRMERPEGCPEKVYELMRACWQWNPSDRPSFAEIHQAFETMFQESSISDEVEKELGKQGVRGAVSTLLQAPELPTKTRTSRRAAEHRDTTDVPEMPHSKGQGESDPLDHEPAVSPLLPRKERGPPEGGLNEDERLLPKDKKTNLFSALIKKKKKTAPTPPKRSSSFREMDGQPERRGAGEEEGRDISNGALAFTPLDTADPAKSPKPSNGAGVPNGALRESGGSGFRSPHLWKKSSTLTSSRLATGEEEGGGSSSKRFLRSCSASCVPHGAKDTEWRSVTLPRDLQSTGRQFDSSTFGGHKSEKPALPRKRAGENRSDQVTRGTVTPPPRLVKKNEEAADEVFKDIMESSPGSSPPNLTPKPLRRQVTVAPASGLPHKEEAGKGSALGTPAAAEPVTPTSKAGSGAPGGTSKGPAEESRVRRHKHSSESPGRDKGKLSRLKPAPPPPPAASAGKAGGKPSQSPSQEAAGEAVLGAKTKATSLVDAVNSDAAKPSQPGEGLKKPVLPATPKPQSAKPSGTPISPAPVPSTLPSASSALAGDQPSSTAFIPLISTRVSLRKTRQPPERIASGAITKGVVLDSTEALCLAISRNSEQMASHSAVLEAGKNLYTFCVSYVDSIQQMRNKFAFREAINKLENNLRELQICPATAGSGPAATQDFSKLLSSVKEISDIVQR
T6 sequence (Q16539 whole entry): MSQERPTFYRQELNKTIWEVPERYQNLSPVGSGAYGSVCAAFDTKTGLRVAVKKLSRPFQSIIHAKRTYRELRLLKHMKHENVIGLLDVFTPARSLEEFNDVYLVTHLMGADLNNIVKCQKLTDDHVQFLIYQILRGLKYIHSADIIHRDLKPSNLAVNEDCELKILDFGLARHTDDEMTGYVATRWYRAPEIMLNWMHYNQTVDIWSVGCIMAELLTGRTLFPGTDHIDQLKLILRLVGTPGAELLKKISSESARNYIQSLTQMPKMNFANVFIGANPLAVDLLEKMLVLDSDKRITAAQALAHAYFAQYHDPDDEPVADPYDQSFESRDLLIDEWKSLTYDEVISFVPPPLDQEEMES
T2 sequence (P12931 whole entry): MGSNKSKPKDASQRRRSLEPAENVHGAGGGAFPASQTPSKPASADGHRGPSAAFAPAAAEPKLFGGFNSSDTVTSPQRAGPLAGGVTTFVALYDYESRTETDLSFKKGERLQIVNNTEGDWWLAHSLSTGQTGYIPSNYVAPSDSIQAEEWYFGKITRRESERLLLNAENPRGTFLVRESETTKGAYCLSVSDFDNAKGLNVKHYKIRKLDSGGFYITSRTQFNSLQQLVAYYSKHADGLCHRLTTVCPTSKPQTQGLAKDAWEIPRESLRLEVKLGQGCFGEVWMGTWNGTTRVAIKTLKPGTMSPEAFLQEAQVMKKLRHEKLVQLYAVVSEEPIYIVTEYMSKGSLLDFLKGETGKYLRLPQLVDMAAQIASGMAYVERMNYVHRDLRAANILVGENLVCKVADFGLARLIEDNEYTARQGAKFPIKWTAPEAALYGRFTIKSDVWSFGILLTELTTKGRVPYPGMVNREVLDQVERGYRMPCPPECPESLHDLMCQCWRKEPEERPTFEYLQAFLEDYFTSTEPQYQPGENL
T3 sequence (P00519 whole entry, species assumed): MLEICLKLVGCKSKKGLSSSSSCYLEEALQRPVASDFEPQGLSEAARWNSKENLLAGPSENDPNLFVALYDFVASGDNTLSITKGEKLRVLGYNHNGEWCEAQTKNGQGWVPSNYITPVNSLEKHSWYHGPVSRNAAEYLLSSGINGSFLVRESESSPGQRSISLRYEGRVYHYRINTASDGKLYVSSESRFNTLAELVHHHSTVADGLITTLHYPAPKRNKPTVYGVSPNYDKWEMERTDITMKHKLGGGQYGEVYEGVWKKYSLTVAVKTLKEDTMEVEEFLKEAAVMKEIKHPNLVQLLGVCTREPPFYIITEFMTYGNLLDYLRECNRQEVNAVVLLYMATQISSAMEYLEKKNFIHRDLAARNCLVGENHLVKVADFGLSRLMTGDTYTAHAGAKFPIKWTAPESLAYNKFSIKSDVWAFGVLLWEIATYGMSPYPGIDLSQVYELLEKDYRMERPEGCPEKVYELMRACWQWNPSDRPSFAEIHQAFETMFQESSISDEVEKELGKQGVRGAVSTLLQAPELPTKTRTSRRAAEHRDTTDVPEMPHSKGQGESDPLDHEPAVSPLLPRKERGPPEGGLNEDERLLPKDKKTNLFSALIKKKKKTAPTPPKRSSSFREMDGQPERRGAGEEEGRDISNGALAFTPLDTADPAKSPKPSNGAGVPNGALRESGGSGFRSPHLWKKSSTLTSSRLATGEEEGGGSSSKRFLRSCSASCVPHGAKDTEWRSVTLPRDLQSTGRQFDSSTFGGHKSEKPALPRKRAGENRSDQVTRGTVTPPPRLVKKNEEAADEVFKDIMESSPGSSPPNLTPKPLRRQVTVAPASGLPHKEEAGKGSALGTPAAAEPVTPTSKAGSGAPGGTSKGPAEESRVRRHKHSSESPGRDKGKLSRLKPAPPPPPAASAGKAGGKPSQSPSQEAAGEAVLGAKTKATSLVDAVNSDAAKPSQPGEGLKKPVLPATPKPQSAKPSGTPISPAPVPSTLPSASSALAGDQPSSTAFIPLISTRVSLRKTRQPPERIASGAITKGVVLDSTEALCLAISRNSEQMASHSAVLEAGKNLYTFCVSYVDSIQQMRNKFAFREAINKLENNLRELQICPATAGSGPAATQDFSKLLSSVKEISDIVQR
T4 sequence (P41240 whole entry): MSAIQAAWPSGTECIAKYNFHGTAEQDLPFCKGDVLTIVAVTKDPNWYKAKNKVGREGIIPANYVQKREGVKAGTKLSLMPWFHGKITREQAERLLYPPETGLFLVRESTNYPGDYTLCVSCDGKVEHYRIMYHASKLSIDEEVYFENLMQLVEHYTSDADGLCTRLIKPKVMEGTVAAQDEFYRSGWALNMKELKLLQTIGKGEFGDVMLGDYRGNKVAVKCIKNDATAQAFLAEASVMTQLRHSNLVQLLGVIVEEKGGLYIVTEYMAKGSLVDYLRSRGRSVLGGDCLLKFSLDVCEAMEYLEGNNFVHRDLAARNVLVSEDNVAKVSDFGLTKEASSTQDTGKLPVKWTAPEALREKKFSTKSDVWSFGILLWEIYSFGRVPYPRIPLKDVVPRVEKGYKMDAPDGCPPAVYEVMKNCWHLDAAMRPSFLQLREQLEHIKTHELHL

For the compound `Cc1cn(-c2cc(C(=O)Nc3ccc(C)c(Nc4nccn4-c4ncnc5[nH]ccc45)c3)cc(C(F)(F)F)c2)cn1` [Example 2, 3-(4-methyl-imidazol-1-yl)-N-{4-methyl-3-[1-(7H-pyrrolo[2,3-d]pyrimidin-4-yl)-1H-imidazol-2-ylamino]-phenyl}-5-trifluoromethyl-benzamide], the inhibition – broadly, the share of the control response that was lost under treatment – at 10 µM at Fes came to 71%; at c-SRC it was 100%; on Abl, 99%; at CSK, 97%; at BTK, 99%; on SAPK2α, 97%. Moreover, the inhibition at 10 µM on Rsk1 worked out at 88%. Besides, the results for the IC50 in assay [1] and in [2] were 32 nM and 43 nM, respectively.

Source of the values: US20080188483A1, “Compounds and Compositions as Protein Kinase Inhibitors” (IRM LLC, priority 2006, published 2008).
